As usually defined, the melting point is the temperature of the solid-liquid transition.

On to `NC(=O)c1[nH]c2cnccc2c1-c1ccc(NC(=O)Nc2cccc(Cl)c2)cc1.O=C(O)C(F)(F)F`, for which the melting point worked out at 221 °C. Next, `NC(=O)c1[nH]c2cnccc2c1-c1ccc(NC(=O)Nc2ccc(F)c(Cl)c2)cc1.O=C(O)C(F)(F)F`: 214 °C. Next, `NC(=O)c1[nH]c2c(ccc[n+]2[O-])c1-c1ccc(NC(=O)Nc2cc(C(F)(F)F)ccc2F)cc1` [Example 8, 3-{4-[3-(2-Fluoro-5-trifluoromethylphenyl)ureido]phenyl}-7-oxy-1H-pyrrolo[2,3-b]pyridine-2-carboxamide]: 220 °C; `NC(=O)c1[nH]c2ncccc2c1-c1ccc(NC(=O)Nc2ccccc2F)cc1` [Example 9, 3-{4-[3-(2-Fluorophenyl)ureido]phenyl}-1H-pyrrolo[2,3-b]-pyridine-2-carboxamide]: 268.7 °C; `COc1ccccc1NC(=O)Nc1ccc(-c2c(C(N)=O)[nH]c3ncccc23)cc1` [Example 10, 3-{4-[3-(2-Methoxyphenyl)ureido]phenyl}-1H-pyrrolo[2,3-b]-pyridine-2-carboxamide]: 227.1 °C. Next, `NC(=O)c1[nH]c2ncccc2c1-c1ccc(NC(=O)Nc2ccc(C(F)(F)F)cc2)cc1` [Example 11, 3-{4-[3-(4-Trifluoromethylphenyl)ureido]phenyl}-1H-pyrrolo-[2,3-b]pyridine-2-carboxamide]: 296.2 °C; `NC(=O)c1[nH]c2ncccc2c1-c1ccc(NC(=O)Nc2cc(C(F)(F)F)ccc2Cl)cc1` [Example 12, 3-{4-[3-(2-Chloro-5-trifluoromethylphenyl)ureido]phenyl}-1H-pyrrolo[2,3-b]pyridine-2-carboxamide]: 188.3 °C; `NC(=O)c1[nH]c2ncccc2c1-c1ccc(NC(=O)Nc2cccc(C(F)(F)F)c2F)cc1` [Example 13, 3-{4-[3-(2-Fluoro-3-trifluoromethylphenyl)ureido]phenyl}-1H-pyrrolo[2,3-b]pyridine-2-carboxamide]: 265.4 °C. In the case of `NC(=O)c1[nH]c2ncccc2c1-c1ccc(NC(=O)Nc2ccc(F)c(C(F)(F)F)c2)cc1` [Example 14, 3-{4-[3-(4-Fluoro-3-trifluoromethylphenyl)ureido]phenyl}-1H-pyrrolo[2,3-b]pyridine-2-carboxamide], the melting point was 234.7 °C. Next, `NC(=O)c1[nH]c2ncccc2c1-c1ccc(NC(=O)Nc2cc(F)cc(C(F)(F)F)c2)cc1` [Example 15, 3-{4-[3-(3-Fluoro-5-trifluoromethylphenyl)ureido]phenyl}-1H-pyrrolo[2,3-b]pyridine-2-carboxamide]: 257.5 °C; `NC(=O)c1[nH]c2ncccc2c1-c1ccc(NC(=O)Nc2ccc(OC(F)(F)F)cc2)cc1` [Example 16, 3-{4-[3-(4-Trifluoromethoxyphenyl)ureido]phenyl}-1H-pyrrolo[2,3-b]pyridine-2-carboxamide]: 258.9 °C.

Regarding `COc1ccc(NC(=O)Nc2ccc(-c3c(C(N)=O)[nH]c4ncccc34)cc2)cc1OC` [Example 17, 3-{4-[3-(3,4-Dimethoxyphenyl)ureido]phenyl}-1H-pyrrolo-[2,3-b]pyridine-2-carboxamide], the melting point was found to be 223.7 °C. For `Cc1ccc(C)c(NC(=O)Nc2ccc(-c3c(C(N)=O)[nH]c4ncccc34)cc2)c1` [Example 18, 3-{4-[3-(2,5-Dimethylphenyl)ureido]phenyl}-1H-pyrrolo[2,3-b]pyridine-2-carboxamide], the melting point came to 308.8 °C.

Consider `COc1cccc(NC(=O)Nc2ccc(-c3c(C(N)=O)[nH]c4ncccc34)cc2)c1` [Example 19, 3-{4-[3-(3-Methoxyphenyl)ureido]phenyl}-1H-pyrrolo[2,3-b]-pyridine-2-carboxamide], for which the melting point came out at 306.2 °C. The compound `NC(=O)c1[nH]c2ncccc2c1-c1ccc(NC(=O)Nc2cccc(C(F)(F)F)c2)cc1` [Example 20, 3-{4-[3-(3-Trifluoromethylphenyl)ureido]phenyl}-1H-pyrrolo-[2,3-b]pyridine-2-carboxamide] returned a melting point of 263.6 °C. Next, `Cc1ccc(NC(=O)Nc2ccc(-c3c(C(N)=O)[nH]c4ncccc34)cc2)cc1C` [Example 21, 3-{4-[3-(3,4-Dimethylphenyl)ureido]phenyl}-1H-pyrrolo[2,3-b]pyridine-2-carboxamide]: 274.7 °C; `COc1ccc(C)cc1NC(=O)Nc1ccc(-c2c(C(N)=O)[nH]c3ncccc23)cc1` [Example 22, 3-{4-[3-(2-Methoxy-5-methylphenyl)ureido]phenyl}-1H-pyrrolo[2,3-b]pyridine-2-carboxamide]: 327.7 °C. Next, `Cc1cccc(NC(=O)Nc2ccc(-c3c(C(N)=O)[nH]c4ncccc34)cc2)c1` [Example 23, 3-[4-(3-m-Tolylureido)phenyl]-1H-pyrrolo[2,3-b]pyridine-2-carboxamide]: 266 °C. Next, `NC(=O)c1[nH]c2ncccc2c1-c1ccc(NC(=O)Nc2ccc(F)cc2)cc1` [Example 24, 3-{4-[3-(4-Fluorophenyl)ureido]phenyl}-1H-pyrrolo[2,3-b]-pyridine-2-carboxamide]: 299.9 °C. The compound `Cc1ccc(NC(=O)Nc2ccc(-c3c(C(N)=O)[nH]c4ncccc34)cc2)cc1` [Example 25, 3-[4-(3-p-Tolylureido)phenyl]-1H-pyrrolo[2,3-b]pyridine-2-carboxamide] came in with a melting point of 293 °C. Next, `Cc1ccc(NC(=O)Nc2ccc(-c3c(C(N)=O)[nH]c4ncccc34)cc2)cc1C(F)(F)F` [Example 26, 3-{4-[3-(4-Methyl-3-trifluoromethylphenyl)ureido]phenyl}-1H-pyrrolo[2,3-b]pyridine-2-carboxamide]: 285 °C; `NC(=O)c1[nH]c2ncccc2c1-c1ccc(NC(=O)Nc2ccc(OC(F)F)cc2)cc1` [Example 27, 3-{4-[3-(4-Difluoromethoxyphenyl)ureido]phenyl}-1H-pyrrolo[2,3-b]pyridine-2-carboxamide]: 283.5 °C. In turn, `COc1cc(NC(=O)Nc2ccc(-c3c(C(N)=O)[nH]c4ncccc34)cc2)cc(OC)c1` [Example 28, 3-{4-[3-(3,5-Dimethoxyphenyl)ureido]phenyl}-1H-pyrrolo-[2,3-b]pyridine-2-carboxamide] gave a melting point of 266.5 °C. Next, `NC(=O)c1[nH]c2ncccc2c1-c1ccc(NC(=O)Nc2ccc(Cl)c(C(F)(F)F)c2)cc1` [Example 29, 3-{4-[3-(4-Chloro-3-trifluoromethylphenyl)ureido]phenyl}-1H-pyrrolo[2,3-b]pyridine-2-carboxamide]: 311.1 °C; `COc1ccc(C(F)(F)F)cc1NC(=O)Nc1ccc(-c2c(C(N)=O)[nH]c3ncccc23)cc1` [Example 32, 3-{4-[3-(2-Methoxy-5-trifluoromethylphenyl)ureido]phenyl}-1H-pyrrolo[2,3-b]pyridine-2-carboxamide]: 221 °C; `COc1ccccc1NC(=O)Nc1ccc(-c2c(C(N)=O)[nH]c3cnccc23)cc1` [Example 34, 3-{4-[3-(2-Methoxyphenyl)ureido]phenyl}-1H-pyrrolo[2,3-c]pyridine-2-carboxamide]: 216 °C.
